Source: article PMC6872521, “An in silico—in vitro Pipeline Identifying an HLA-A^*02:01^+ KRAS G12V^+ Spliced Epitope Candidate for a Broad Tumor-Immune Response in Cancer Patients” (Frontiers in Immunology, 2019)

Experiments:
[1] = system: PBMCs of pancreatic adenocarcinoma patients; details: cited from earlier work
[2] = system: TAPs (transporters associated with antigen processing); experiment: TAP assay: competition with a fluorescent reference peptide for TAP-dependent translocation into microsomes; assay type: biochemical; details: competition with fluorescent tracer peptide; microsomes from LCL721 cells; 10 mM ATP mixture; 20 min at 37°C; fluorescence read-out; signal without ATP subtracted; result in words (EC50 values only in Figure 6B)
Protocol: The transport efficiency of target peptides (Supplementary Table 2) into the ER lumen mediated by TAPs was carried out as previously described ([29]) although some modifications were introduced. These include the use of a fluorescent peptide tracer and the use of microsomes rather than Streptolysin O permeabilized cells. Briefly, peptides were dissolved in DMSO and different concentrations were distributed in a final volume of 10 μl DMSO. At the same time, a mixture of 10 mM ATP, 100 mM Tris-HCl pH7.5 and 5 mM MgCl2 and fluorescent tracer peptide was prepared. 60 μl of this mixture was added to the 10 μl competing peptide mixture to a final volume of 70 μl. This was prewarmed to 37°C and 30 μl of pre-warmed microsomes were added. Microsomes were derived from LCL721 cells, as previously described ([29]).
The mixture was incubated for 20 min at 37°C followed by cell lysis with lysis mixture (0.5% TX100, 5 mM MgCl2 in 100 mM Tris-HCl pH7.5) at 4°C. After at least 30 min incubation at 4°C, DNA was pelleted and the supernatant transferred to a new vial including ConA-beads. After at least 30 min incubation on ice, cells were washed four times with lysis mixture and the last time with 100 mM Tris-HCl pH7.5 before transfer to 96 wells plates (Corning) followed by fluorescence measurements in a plate reader. To detect background signals, a sample without competing peptide and ATP was included and fully performed as described above. This signal was subtracted from the detected signal.
To quantify the efficiency of peptide transport into the ER lumen by TAP, we measured the competition between the target peptides and a fluorescent reference peptide for TAP-dependent translocation into free microsomes.

HLA-A*02:01 complex = HLA-A*02:01 complex (Homo sapiens, UniProt P04439, D140Y/D185E/D98H/E176V/E277Q/G131W/G231S/I119V/I121R/I166T/I218V/L300P/L318F/N151K/N90K/P208A/P217A/Q86G/Q94H/R138H/R169H/T345S); experiment: HLA-A*02:01-peptide binding affinity measured with purified HLA-I molecules; details: cell-free system, values only in Figure 6C
Protocol: The binding affinity between theoretical spliced and non-spliced peptides and HLA-A^*02:01 was predicted using the NetMHCPan 3.0 algorithm ([30]). […] The binding affinity between the synthetic peptides and HLA-A^*02:01 complexes was measured using purified HLA-I molecules, as described elsewhere ([10]).
Once a peptide arrives in the ER lumen, its binding affinity to the specific HLA-I molecule determines whether it will ultimately be presented. Therefore, we measured the binding affinity of the same six peptides previously tested in the TAP assay and the HLA-A^*02:01 complex in a cell-free system utilizing purified HLA-I molecules.

[3] = system: Transduced human CD8+ T cells; details: TCRs isolated from humanized ABabDII mice, transduced into human PBMCs; cited from earlier work
Source text: Our pipeline identifies epitope candidates which shall further be validated by isolating specific CTL clones and their TCRs and using them to confirm that the epitope candidates are produced in cellulo and eventually in vivo. There are several strategies to this end. For example, the KRAS5−6/8−14 spliced epitope candidate here identified has been validated in collaboration with Blankenstein et al. ([56]). Specific TCRs have been isolated from humanized ABabDII mice ([57]), cloned into expressing vectors and transduced into human PBMCs.

Compound | Recognition by PBMCs of pancreatic adenocarcinoma patients [1] | Transport efficiency into the ER lumen mediated by TAPs [2] | Binding to HLA-A*02:01 complex (result in words) (HLA-A*02:01 complex) | Recognition of the epitope by TCR-transduced human CD8+ T cells [3]
CC(C)C[C@H](NC(=O)[C@@H](N)CCCCN)C(=O)N[C@H](C(=O)N[C@H](C(=O)N[C@H](C(=O)NCC(=O)N[C@@H](C)C(=O)N[C@H](C(=O)NCC(=O)N[C@H](C(=O)O)C(C)C)C(C)C)C(C)C)C(C)C)C(C)C [KRAS5−14 G12V] | recognized by PBMCs |  |  | 
KLVVVAVGV [peptide #2] |  | not competing with the reference peptide |  | 
YLVVVGAVGV [peptide #1] |  | transported by TAP as efficiently as the non-spliced epitope candidate |  | 
[KL][VVGAVGV] [KRAS5−6/8−14 G12V] |  | efficiently transported by TAPs | efficiently bind | selectively recognized
